According to patent US9969749B2, “Inhibitors of IRAK4 activity” (MERCK SHARP & DOHME CORP., priority 2014, dated 2018):

molecular target: IRAK4 (Homo sapiens (Human), UniProt Q9NWZ3); test: IRAK4 Kinase Assay (IMAP fluorescence polarization); assay type: biochemical; details: 0.5 nM GST tagged IRAK4, 100 μM ATP, 100 nM fluorescent peptide substrate RP7030, 30 minutes at 25° C.
Procedure: The kinase activity of IRAK4 is determined by its ability to catalyze the phosphorylation of a fluorescent polypeptide substrate. The extent of phosphorylation is measured using the IMAP technology (Molecular Devices) where the phosphorylated fluorescent substrate binds to the large M(III)-based nanoparticles which reduces the rotational speed of the substrate and thus increases its fluorescent polarization (FP).
20 μL reaction mixture contains 10 mM TriHCl, pH 7.2, 0.5 nM GST tagged IRAK4 (SignalChem), 100 nM fluorescent peptide substrate (RP7030, Molecular Devices), 100 μM ATP, 1 mM DDT, 1 mM MgCl2, and 0.01% Tween 20. The reaction is initiated by the addition of ATP. After incubation for 30 minutes at 25° C., 60 μL of Progressive IMAP Reagent (Molecular Devices) is added to stop the reaction. Change in RP7030's FP is determined by a FP reader (Analyst HT, LJL BioSystems).

IRAK4, sequence (Q9NWZ3 whole entry): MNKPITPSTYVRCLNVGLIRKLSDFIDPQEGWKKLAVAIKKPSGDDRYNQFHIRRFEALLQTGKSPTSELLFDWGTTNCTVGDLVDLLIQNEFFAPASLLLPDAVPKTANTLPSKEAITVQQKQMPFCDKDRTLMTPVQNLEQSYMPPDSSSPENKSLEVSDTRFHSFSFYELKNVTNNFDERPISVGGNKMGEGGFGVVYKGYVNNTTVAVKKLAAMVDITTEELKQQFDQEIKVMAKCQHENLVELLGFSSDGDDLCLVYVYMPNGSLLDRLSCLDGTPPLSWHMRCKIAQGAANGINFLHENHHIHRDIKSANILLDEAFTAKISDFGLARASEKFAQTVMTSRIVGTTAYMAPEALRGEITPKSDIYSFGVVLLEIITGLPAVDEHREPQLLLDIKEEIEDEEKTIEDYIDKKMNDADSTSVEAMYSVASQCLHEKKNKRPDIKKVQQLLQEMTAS

**Q.** `CN(C)[C@H]1CC[C@H](Nc2ncnc3ccc(-c4cnccc4C(F)(F)F)cc23)CC1` [Example 1-36, trans-N,N-dimethyl-N′-{6-[4-(trifluoromethyl)pyridin-3-yl]quinazolin-4-yl}cyclohexane-1,4-diamine] was tested. Which IC50 did it give?
**A.** 19 nM

**Q.** Which IC50 does the source give for `CN(C)[C@H]1CC[C@H](Nc2ncnc3ccc(-c4cncc(C(=O)O)c4)cc23)CC1` [Example 1-37, 5-(4-{[trans-4-(dimethylamino)cyclohexyl]amino}quinazolin-6-yl)pyridine-3-carboxylic acid] here?
**A.** 504 nM

**Q.** For `COc1cnccc1-c1ccc2ncnc(N[C@H]3CC[C@H](N(C)C)CC3)c2c1` [Example 1-38, trans-N′-[6-(3-methoxypyridin-4-yl)quinazolin-4-yl]-N,N-dimethylcyclohexane-1,4-diamine], which IC50 is on record?
**A.** 71 nM

**Q.** For `CN(C)[C@H]1CC[C@H](Nc2ncnc3ccc(-c4cccnc4C#N)cc23)CC1` [Example 1-39, 3-(4-{[trans-4-(dimethylamino)cyclohexyl]amino}quinazolin-6-yl)pyridine-2-carbonitrile], which IC50 is on record?
**A.** 43 nM

**Q.** Which IC50 does the source give for `COCCOc1cncc(-c2ccc3ncnc(N[C@H]4CC[C@H](N(C)C)CC4)c3c2)c1` [Example 1-40, trans-N′-{6-[5-(2-methoxyethoxy)pyridin-3-yl]quinazolin-4-yl}-N,N-dimethylcyclohexane-1,4-diamine] here?
**A.** 83 nM

**Q.** For `CN(C)[C@H]1CC[C@H](Nc2ncnc3ccc(-c4cncc(S(C)(=O)=O)c4)cc23)CC1` [Example 1-41, trans-N,N-dimethyl-N′-{6-[5-(methylsulfonyl)pyridin-3-yl]quinazolin-4-yl}cyclohexane-1,4-diamine], which IC50 is on record?
**A.** 2350 nM

**Q.** How did the IC50 turn out when `CN(C)[C@H]1CC[C@H](Nc2ncnc3ccc(-c4cnc(NC5CC5)nc4)cc23)CC1` [Example 1-42, trans-N′-{6-[2-(cyclopropylamino)pyrimidin-5-yl]quinazolin-4-yl}-N,N-dimethylcyclohexane-1,4-diamine] was run?
**A.** 11 nM

**Q.** How did the IC50 turn out when `CN(C)[C@H]1CC[C@H](Nc2ncnc3ccc(-c4cnc(NCCO)nc4)cc23)CC1` [Example 1-43, 2-{[5-(4-{[trans-4-(dimethylamino)cyclohexyl]amino}quinazolin-6-yl)pyrimidin-2-yl]amino}ethanol] was run?
**A.** 25 nM

**Q.** Which IC50 does the source give for `CN(C)[C@H]1CC[C@H](Nc2ncnc3ccc(-c4cccc(C#N)c4)cc23)CC1` [Example 1-44, 3-(4-{[trans-4-(dimethylamino)cyclohexyl]amino}quinazolin-6-yl)benzonitrile] here?
**A.** 32 nM

**Q.** `CN(C)[C@H]1CC[C@H](Nc2ncnc3ccc(-c4ccc5[nH]ccc5c4)cc23)CC1` [Example 1-45, trans-N′-[6-(1H-indol-5-yl)quinazolin-4-yl]-N,N-dimethylcyclohexane-1,4-diamine] was tested. Which IC50 did it give?
**A.** 81 nM

**Q.** `c1cncc(-c2ccc3ncnc(N[C@H]4CC[C@H](N5CCOCC5)CC4)c3c2)c1` [Example 1-46, N-[trans-4-(morpholin-4-yl)cyclohexyl]-6-(pyridin-3-yl)quinazolin-4-amine] was tested. Which IC50 did it give?
**A.** 19 nM

**Q.** `c1ncc(-c2ccc3ncnc(N[C@H]4CC[C@H](N5CCOCC5)CC4)c3c2)cn1` [Example 1-47, N-[trans-4-(morpholin-4-yl)cyclohexyl]-6-(pyrimidin-5-yl)quinazolin-4-amine] was tested. Which IC50 did it give?
**A.** 3 nM

**Q.** How did the IC50 turn out when `c1cc(-c2ccc3ncnc(N[C@H]4CC[C@H](N5CCOCC5)CC4)c3c2)ccn1` [Example 1-48, N-[trans-4-(morpholin-4-yl)cyclohexyl]-6-(pyridin-4-yl)quinazolin-4-amine] was run?
**A.** 9 nM

**Q.** With `CN(C)[C@H]1CC[C@H](Nc2ncnc3ccc(-c4ccc5c(c4)OCCO5)cc23)CC1` [Example 1-49, trans-N′-[6-(2,3-dihydro-1,4-benzodioxin-6-yl)quinazolin-4-yl]-N,N-dimethylcyclohexane-1,4-diamine] as the compound, how does the IC50 read?
**A.** 161 nM

**Q.** Which IC50 does the source give for `CN(C)[C@H]1CC[C@H](Nc2ncnc3ccc(-c4ccnnc4)cc23)CC1` [Example 1-50, trans-N,N-dimethyl-N′-[6-(pyridazin-4-yl)quinazolin-4-yl]cyclohexane-1,4-diamine] here?
**A.** 11 nM

**Q.** Which IC50 does the source give for `COc1cncc(-c2ccc3ncnc(N[C@H]4CC[C@H](N(C)C)CC4)c3c2)c1` [Example 1-51, trans-N′-[6-(5-methoxypyridin-3-yl)quinazolin-4-yl]-N,N-dimethylcyclohexane-1,4-diamine] here?
**A.** 25 nM

**Q.** With `COc1ncc(-c2ccc3ncnc(N[C@H]4CC[C@H](N(C)C)CC4)c3c2)cc1F` [Example 1-52, trans-N′-[6-(5-fluoro-6-methoxypyridin-3-yl)quinazolin-4-yl]-N,N-dimethylcyclohexane-1,4-diamine] as the compound, how does the IC50 read?
**A.** 200 nM

**Q.** For `CN(C)[C@H]1CC[C@H](Nc2ncnc3ccc(-c4cncc(F)c4)cc23)CC1` [Example 1-53, trans-N′-[6-(5-fluoropyridin-3-yl)quinazolin-4-yl]-N,N-dimethylcyclohexane-1,4-diamine], which IC50 is on record?
**A.** 24 nM

**Q.** With `CN(C)[C@H]1CC[C@H](Nc2ncnc3ccc(-c4cncc(C#N)c4)cc23)CC1` [Example 1-54, 5-(4-{[trans-4-(dimethylamino)cyclohexyl]amino}quinazolin-6-yl)pyridine-3-carbonitrile] as the compound, how does the IC50 read?
**A.** 46 nM

**Q.** For `CN(C)[C@H]1CC[C@H](Nc2ncnc3ccc(-c4cnc5[nH]ccc5c4)cc23)CC1` [Example 1-55, trans-N,N-dimethyl-N′-[6-(1H-pyrrolo[2,3-b]pyridin-5-yl)quinazolin-4-yl]cyclohexane-1,4-diamine], which IC50 is on record?
**A.** 46 nM

**Q.** How did the IC50 turn out when `CN(C)[C@H]1CC[C@H](Nc2ncnc3ccc(-c4cncc(C(=O)NC(C)(C)C)c4)cc23)CC1` [Example 1-56, N-tert-butyl-5-(4-{[trans-4-(dimethylamino)cyclohexyl]amino}quinazolin-6-yl)pyridine-3-carboxamide] was run?
**A.** 129 nM

**Q.** `CN1CCOc2cc(-c3ccc4ncnc(N[C@H]5CC[C@H](N(C)C)CC5)c4c3)cnc21` [Example 1-57, trans-N,N-dimethyl-N′-[6-(4-methyl-3,4-dihydro-2H-pyrido[3,2-b][1,4]oxazin-7-yl)quinazolin-4-yl]cyclohexane-1,4-diamine] was tested. Which IC50 did it give?
**A.** 6730 nM

**Q.** Which IC50 does the source give for `CN(C)[C@H]1CC[C@H](Nc2ncnc3ccc(-c4cnc5[nH]ncc5c4)cc23)CC1` [Example 1-58, trans-N,N-dimethyl-N′-[6-(1H-pyrazolo[3,4-b]pyridin-5-yl)quinazolin-4-yl]cyclohexane-1,4-diamine] here?
**A.** 21 nM

**Q.** For `CN(C)[C@H]1CC[C@H](Nc2ncnc3ccc(-c4cnc5cc[nH]c5c4)cc23)CC1` [Example 1-59, trans-N,N-dimethyl-N′-[6-(1H-pyrrolo[3,2-b]pyridin-6-yl)quinazolin-4-yl]cyclohexane-1,4-diamine], which IC50 is on record?
**A.** 124 nM

**Q.** Which IC50 does the source give for `Cn1cnc2cc(-c3ccc4ncnc(N[C@H]5CC[C@H](N(C)C)CC5)c4c3)cnc21` [Example 1-60, trans-N,N-dimethyl-N′-[6-(3-methyl-3H-imidazo[4,5-b]pyridin-6-yl)quinazolin-4-yl]cyclohexane-1,4-diamine] here?
**A.** 1690 nM

**Q.** `CN(C)[C@H]1CC[C@H](Nc2ncnc3ccc(-c4cnc5ccoc5c4)cc23)CC1` [Example 1-61, trans-N′-[6-(furo[3,2-b]pyridin-6-yl)quinazolin-4-yl]-N,N-dimethylcyclohexane-1,4-diamine] was tested. Which IC50 did it give?
**A.** 109 nM

**Q.** How did the IC50 turn out when `CN(C)[C@H]1CC[C@H](Nc2ncnc3ccc(-c4cc(F)cc(F)c4)cc23)CC1` [Example 1-62, trans-N′-[6-(3,5-difluorophenyl)quinazolin-4-yl]-N,N-dimethylcyclohexane-1,4-diamine] was run?
**A.** 23 nM

**Q.** How did the IC50 turn out when `CN(C)[C@H]1CC[C@H](Nc2ncnc3ccc(-c4cc(O)cc(F)c4)cc23)CC1` [Example 1-63, 3-(4-{[trans-4-(dimethylamino)cyclohexyl]amino}quinazolin-6-yl)-5-fluorophenol] was run?
**A.** 3 nM

**Q.** For `CN(C)[C@H]1CC[C@H](Nc2ncnc3ccc(-c4cc(O)c(F)c(F)c4)cc23)CC1` [Example 1-64, 5-(4-{[trans-4-(dimethylamino)cyclohexyl]amino}quinazolin-6-yl)-2,3-difluorophenol], which IC50 is on record?
**A.** 4 nM

**Q.** For `Oc1cncc(-c2ccc3ncnc(N[C@H]4CC[C@H](N5CCOCC5)CC4)c3c2)c1` [Example 1-65, 5-(4-{[trans-4-(morpholin-4-yl)cyclohexyl]amino}quinazolin-6-yl)pyridin-3-ol], which IC50 is on record?
**A.** < 0.5 nM

**Q.** With `Oc1cc(F)cc(-c2ccc3ncnc(N[C@H]4CC[C@H](N5CCOCC5)CC4)c3c2)c1` [Example 1-66, 3-fluoro-5-{4-[(trans-4-morpholin-4-ylcyclohexyl)amino]quinazolin-6-yl}phenol] as the compound, how does the IC50 read?
**A.** 5 nM

**Q.** Which IC50 does the source give for `Oc1cc(-c2ccc3ncnc(N[C@H]4CC[C@H](N5CCOCC5)CC4)c3c2)ccn1` [Example 1-67, 4-{4-[(trans-4-morpholin-4-ylcyclohexyl)amino]quinazolin-6-yl}pyridin-2-ol] here?
**A.** 15 nM

**Q.** How did the IC50 turn out when `Fc1cc(F)cc(-c2ccc3ncnc(N[C@H]4CC[C@H](N5CCOCC5)CC4)c3c2)c1` [Example 1-68, 6-(3,5-difluorophenyl)-N-(trans-4-morpholin-4-ylcyclohexyl)quinazolin-4-amine] was run?
**A.** 25 nM

**Q.** For `COc1cncc(-c2ccc3ncnc(N[C@H]4CC[C@H](N5CCOCC5)CC4)c3c2)c1` [Example 1-69, 6-(5-methoxypyridin-3-yl)-N-[trans-4-(morpholin-4-yl)cyclohexyl]quinazolin-4-amine], which IC50 is on record?
**A.** 18 nM

**Q.** Which IC50 does the source give for `Oc1cc(-c2ccc3ncnc(N[C@H]4CC[C@H](N5CCOCC5)CC4)c3c2)cc(F)c1F` [Example 1-70, 2,3-difluoro-5-{4-[(trans-4-morpholin-4-ylcyclohexyl)amino]quinazolin-6-yl}phenol] here?
**A.** 5 nM

**Q.** With `COc1ncc(-c2ccc3ncnc(N[C@H]4CC[C@H](N5CCOCC5)CC4)c3c2)cc1N` [Example 1-71, 6-(5-amino-6-methoxypyridin-3-yl)-N-(trans-4-morpholin-4-ylcyclohexyl)quinazolin-4-amine] as the compound, how does the IC50 read?
**A.** 17 nM
